Results published in the kinase profiling compilation of Christmann-Franck et al. (2016).

Tests used:
Assay in all cases: radiometric filter-binding kinase assay, Kinase HotSpot
Details in all cases: compound 0.5 µM; ATP 10 µM
[1] = target: NLK (human) (UniProt Q9UBE8)
[2] = target: PRKCB2 (human) (UniProt P05771)
[3] = target: RPS6KA3 KD1 KD2 (human) (UniProt P51812)
[4] = target: GRK6 (human) (UniProt P43250)
[5] = target: LIMK1 (human) (UniProt P53667)
[6] = target: MARK4 (human) (UniProt Q96L34)
[7] = target: TSSK2 (human) (UniProt Q96PF2)
[8] = target: DAPK2 (human) (UniProt Q9UIK4)
[9] = target: HIPK4 (human) (UniProt Q8NE63)
[10] = target: VRK1 (human) (UniProt Q99986)
[11] = target: STK39 (human) (UniProt Q9UEW8)
[12] = target: CLK4 (human) (UniProt Q9HAZ1)
[13] = target: DCLK2 (human) (UniProt Q8N568)
[14] = target: CDK5 CDK5R1 p35 (human) (UniProt Q00535+Q15078)
[15] = target: GSK3B (human) (UniProt P49841)
[16] = target: CDK2 CCNE1 (human) (UniProt P24941+P24864)
[17] = target: GRK4 (human) (UniProt P32298)
[18] = target: MUSK (human) (UniProt O15146)
[19] = target: MAP4K4 (human) (UniProt O95819)
[20] = target: PAK6 (human) (UniProt Q9NQU5)
[21] = target: HIPK1 (human) (UniProt Q86Z02)
[22] = target: AXL (human) (UniProt P30530)
[23] = target: PRKCB1 (human) (UniProt P05771)
[24] = target: TTK (human) (UniProt P33981)
[25] = target: MAPKAPK5 (human) (UniProt Q8IW41)
[26] = target: EPHA2 (human) (UniProt P29317)
[27] = target: MAP4K2 (human) (UniProt Q12851)
[28] = target: MAPKAPK3 (human) (UniProt Q16644)
[29] = target: TAOK3 (human) (UniProt Q9H2K8)
[30] = target: EPHB1 (human) (UniProt P54762)
[31] = target: EGFR (human) (UniProt P00533)
[32] = target: PDPK1 (human) (UniProt O15530)
[33] = target: FER (human) (UniProt P16591)
[34] = target: SRMS (human) (UniProt Q9H3Y6)
[35] = target: CAMK2D (human) (UniProt Q13557)
[36] = target: MAPKAPK2 (human) (UniProt P49137)
[37] = target: CLK2 (human) (UniProt P49760)
[38] = target: PAK1 (human) (UniProt Q13153)
[39] = target: LCK (human) (UniProt P06239)
[40] = target: EPHA3 (human) (UniProt P29320)
[41] = target: MARK2 (human) (UniProt Q7KZI7)
[42] = target: MKNK2 (human) (UniProt Q9HBH9)

EPHB1 (human), sequence (P54762 whole entry, looked up): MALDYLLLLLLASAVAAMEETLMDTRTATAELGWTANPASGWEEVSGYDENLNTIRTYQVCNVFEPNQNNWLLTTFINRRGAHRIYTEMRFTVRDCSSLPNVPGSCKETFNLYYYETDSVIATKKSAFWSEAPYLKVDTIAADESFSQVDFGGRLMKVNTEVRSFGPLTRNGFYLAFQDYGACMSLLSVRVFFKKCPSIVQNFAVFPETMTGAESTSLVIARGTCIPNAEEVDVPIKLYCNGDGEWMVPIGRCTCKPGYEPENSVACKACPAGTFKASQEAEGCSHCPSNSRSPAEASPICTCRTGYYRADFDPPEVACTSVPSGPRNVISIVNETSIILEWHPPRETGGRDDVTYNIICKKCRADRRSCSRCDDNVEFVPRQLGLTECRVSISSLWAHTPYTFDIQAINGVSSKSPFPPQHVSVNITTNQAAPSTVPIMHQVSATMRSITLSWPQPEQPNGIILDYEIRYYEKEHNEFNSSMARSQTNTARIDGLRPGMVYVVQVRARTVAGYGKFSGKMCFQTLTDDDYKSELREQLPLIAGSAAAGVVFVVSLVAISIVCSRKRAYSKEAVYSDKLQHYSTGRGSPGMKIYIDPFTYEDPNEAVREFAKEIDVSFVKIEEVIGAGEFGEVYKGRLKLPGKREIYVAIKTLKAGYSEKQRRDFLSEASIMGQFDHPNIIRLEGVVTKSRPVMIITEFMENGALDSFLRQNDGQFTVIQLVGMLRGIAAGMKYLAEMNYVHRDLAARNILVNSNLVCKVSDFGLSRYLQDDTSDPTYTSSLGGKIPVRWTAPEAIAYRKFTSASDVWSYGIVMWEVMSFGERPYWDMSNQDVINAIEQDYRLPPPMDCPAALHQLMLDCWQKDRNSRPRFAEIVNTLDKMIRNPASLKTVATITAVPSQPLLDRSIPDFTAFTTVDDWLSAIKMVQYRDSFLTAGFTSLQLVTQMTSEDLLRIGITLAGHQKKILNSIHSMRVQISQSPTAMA
CLK2 (human), sequence (P49760 whole entry, looked up): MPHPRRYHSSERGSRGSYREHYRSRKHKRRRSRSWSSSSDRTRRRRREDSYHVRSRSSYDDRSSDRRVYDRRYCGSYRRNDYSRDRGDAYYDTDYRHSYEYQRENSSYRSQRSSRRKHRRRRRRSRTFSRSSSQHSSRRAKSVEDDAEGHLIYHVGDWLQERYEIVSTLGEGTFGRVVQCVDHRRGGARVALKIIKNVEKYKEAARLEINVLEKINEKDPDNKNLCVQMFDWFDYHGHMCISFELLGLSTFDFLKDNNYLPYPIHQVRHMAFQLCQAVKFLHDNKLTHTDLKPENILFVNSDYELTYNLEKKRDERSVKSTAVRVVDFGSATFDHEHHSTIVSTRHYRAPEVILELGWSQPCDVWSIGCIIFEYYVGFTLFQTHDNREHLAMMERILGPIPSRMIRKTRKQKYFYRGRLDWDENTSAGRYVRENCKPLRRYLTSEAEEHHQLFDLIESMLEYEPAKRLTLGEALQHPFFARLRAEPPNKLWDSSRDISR
LCK (human), sequence (P06239 whole entry, looked up): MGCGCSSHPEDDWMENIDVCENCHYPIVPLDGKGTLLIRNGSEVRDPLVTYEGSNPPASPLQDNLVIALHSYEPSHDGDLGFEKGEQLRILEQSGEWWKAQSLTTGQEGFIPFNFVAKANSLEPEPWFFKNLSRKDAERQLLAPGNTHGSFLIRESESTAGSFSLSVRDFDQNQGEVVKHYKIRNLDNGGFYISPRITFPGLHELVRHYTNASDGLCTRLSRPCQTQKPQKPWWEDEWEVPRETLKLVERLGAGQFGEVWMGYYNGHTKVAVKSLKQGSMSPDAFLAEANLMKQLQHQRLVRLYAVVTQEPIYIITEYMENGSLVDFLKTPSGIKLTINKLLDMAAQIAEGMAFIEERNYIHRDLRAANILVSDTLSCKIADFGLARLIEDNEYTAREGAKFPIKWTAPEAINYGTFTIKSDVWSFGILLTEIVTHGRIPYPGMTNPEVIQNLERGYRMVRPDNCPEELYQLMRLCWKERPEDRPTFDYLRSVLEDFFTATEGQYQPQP
HIPK1 (human), sequence (Q86Z02 whole entry, looked up): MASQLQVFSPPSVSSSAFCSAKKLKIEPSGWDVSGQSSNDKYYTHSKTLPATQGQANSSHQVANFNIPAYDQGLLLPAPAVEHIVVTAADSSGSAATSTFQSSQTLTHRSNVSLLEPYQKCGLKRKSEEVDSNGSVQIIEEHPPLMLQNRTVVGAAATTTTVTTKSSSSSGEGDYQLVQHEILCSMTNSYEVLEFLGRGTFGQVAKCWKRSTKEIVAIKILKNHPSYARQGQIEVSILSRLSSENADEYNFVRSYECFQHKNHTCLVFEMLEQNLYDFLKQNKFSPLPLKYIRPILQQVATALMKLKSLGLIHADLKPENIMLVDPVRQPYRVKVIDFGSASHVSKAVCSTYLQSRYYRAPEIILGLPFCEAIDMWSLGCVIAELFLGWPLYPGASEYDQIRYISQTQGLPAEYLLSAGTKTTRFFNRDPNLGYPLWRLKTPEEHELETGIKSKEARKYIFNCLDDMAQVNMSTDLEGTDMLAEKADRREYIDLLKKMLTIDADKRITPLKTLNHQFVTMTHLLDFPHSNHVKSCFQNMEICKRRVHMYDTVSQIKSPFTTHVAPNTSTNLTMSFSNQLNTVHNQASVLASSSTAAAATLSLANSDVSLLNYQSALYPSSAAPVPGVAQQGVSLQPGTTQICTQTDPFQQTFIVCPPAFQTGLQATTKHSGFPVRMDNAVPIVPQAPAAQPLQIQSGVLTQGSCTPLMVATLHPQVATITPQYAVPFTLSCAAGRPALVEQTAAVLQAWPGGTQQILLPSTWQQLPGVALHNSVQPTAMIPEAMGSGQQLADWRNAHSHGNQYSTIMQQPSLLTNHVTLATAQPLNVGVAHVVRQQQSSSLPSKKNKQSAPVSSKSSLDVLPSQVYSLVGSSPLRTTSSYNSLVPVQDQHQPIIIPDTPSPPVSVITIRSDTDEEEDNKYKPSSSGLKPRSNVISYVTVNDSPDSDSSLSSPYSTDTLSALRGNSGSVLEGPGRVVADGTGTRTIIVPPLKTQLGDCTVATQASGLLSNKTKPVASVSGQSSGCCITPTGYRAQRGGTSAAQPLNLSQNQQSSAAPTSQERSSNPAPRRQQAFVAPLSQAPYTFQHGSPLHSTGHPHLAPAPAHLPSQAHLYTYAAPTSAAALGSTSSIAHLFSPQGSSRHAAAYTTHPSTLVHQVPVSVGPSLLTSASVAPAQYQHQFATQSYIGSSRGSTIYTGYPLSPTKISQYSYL
LIMK1 (human), sequence (P53667 whole entry, looked up): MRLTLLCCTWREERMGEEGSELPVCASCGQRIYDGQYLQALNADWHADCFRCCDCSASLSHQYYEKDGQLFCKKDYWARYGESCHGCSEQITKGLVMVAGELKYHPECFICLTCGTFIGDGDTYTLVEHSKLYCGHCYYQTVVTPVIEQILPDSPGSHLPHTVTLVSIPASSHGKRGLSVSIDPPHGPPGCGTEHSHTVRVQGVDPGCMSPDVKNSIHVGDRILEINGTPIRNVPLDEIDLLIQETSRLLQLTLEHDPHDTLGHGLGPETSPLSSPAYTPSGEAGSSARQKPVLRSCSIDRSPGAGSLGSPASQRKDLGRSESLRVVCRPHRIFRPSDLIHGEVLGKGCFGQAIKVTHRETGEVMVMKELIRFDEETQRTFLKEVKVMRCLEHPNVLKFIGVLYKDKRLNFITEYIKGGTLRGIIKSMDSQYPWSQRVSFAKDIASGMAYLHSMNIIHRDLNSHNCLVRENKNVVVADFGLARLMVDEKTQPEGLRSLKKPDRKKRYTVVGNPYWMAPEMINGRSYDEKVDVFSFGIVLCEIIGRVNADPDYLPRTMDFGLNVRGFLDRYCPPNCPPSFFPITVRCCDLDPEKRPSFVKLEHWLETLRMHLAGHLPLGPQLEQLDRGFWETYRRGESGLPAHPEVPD
PAK1 (human), sequence (Q13153 whole entry, looked up): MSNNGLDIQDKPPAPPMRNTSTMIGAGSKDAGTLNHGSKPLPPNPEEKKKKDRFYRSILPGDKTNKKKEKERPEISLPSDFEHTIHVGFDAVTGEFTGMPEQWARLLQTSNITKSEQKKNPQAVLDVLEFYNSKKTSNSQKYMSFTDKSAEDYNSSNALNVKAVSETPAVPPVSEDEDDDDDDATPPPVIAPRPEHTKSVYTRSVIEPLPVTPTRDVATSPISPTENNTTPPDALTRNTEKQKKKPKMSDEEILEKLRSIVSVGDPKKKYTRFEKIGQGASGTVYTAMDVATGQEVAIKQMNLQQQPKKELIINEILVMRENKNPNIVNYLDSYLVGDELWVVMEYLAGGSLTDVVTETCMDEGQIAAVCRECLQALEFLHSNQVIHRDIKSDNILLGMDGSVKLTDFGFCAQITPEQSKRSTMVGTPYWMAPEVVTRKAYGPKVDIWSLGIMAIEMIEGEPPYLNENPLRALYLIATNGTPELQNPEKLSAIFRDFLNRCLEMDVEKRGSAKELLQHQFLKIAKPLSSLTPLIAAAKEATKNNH
PRKCB1 (human), sequence (P05771 whole entry, looked up): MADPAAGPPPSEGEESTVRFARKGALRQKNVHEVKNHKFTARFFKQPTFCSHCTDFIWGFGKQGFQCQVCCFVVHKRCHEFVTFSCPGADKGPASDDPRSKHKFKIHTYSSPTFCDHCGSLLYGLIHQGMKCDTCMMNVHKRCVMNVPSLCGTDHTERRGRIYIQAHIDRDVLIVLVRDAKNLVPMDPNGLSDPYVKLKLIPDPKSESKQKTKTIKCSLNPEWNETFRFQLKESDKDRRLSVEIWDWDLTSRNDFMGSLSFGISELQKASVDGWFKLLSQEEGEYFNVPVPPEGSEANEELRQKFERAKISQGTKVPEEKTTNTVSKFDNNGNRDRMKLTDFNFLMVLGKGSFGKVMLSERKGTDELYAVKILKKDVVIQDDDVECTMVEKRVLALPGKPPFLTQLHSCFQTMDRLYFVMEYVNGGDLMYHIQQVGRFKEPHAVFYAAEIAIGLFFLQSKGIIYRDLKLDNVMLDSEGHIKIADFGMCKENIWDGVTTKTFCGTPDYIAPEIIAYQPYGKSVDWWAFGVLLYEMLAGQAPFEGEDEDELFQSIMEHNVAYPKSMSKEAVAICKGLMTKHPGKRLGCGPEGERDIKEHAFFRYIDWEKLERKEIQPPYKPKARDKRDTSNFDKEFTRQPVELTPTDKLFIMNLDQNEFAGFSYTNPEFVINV

## CN(C)c1ccc(/C=C2\C(=O)Nc3ccccc32)cc1
[1]
  residual activity: 102%
[2]
  residual activity: 103%
[3]
  residual activity: 92.6%
[4]
  residual activity: 102%
[5]
  residual activity: 97.7%
[6]
  residual activity: 97%
[7]
  residual activity: 101%
[8]
  residual activity: 105%
[9]
  residual activity: 98.3%
[10]
  residual activity: 89%
[11]
  residual activity: 96.6%
[12]
  residual activity: 94.1%
[13]
  residual activity: 100%
[14]
  residual activity: 104%
[15]
  residual activity: 111%
[16]
  residual activity: 97.1%
[17]
  residual activity: 103%
[18]
  residual activity: 96.4%
[19]
  residual activity: 74.5%
[20]
  residual activity: 96.9%
[21]
  residual activity: 103%
[22]
  residual activity: 93.8%
[23]
  residual activity: 96.1%
[24]
  residual activity: 99.7%
[25]
  residual activity: 98.6%
[26]
  residual activity: 107%
[27]
  residual activity: 109%
[28]
  residual activity: 100%
[29]
  residual activity: 95.1%
[30]
  residual activity: 102%
[31]
  residual activity: 92.1%
[32]
  residual activity: 82.3%
[33]
  residual activity: 94.5%
[34]
  residual activity: 97.9%
[35]
  residual activity: 96.4%
[36]
  residual activity: 106%
[37]
  residual activity: 99.7%
[38]
  residual activity: 95.7%
[39]
  residual activity: 93%
[40]
  residual activity: 102%
[41]
  residual activity: 105%
[42]
  residual activity: 90.5%

## COc1cc2ncnc(Nc3ccc(Oc4ccccc4)cc3)c2cc1OC
[1]
  residual activity: 100%
[2]
  residual activity: 92.8%
[3]
  residual activity: 97.8%
[4]
  residual activity: 99.6%
[5]
  residual activity: 89%
[6]
  residual activity: 105%
[7]
  residual activity: 103%
[8]
  residual activity: 102%
[9]
  residual activity: 91.8%
[10]
  residual activity: 98.2%
[11]
  residual activity: 102%
[12]
  residual activity: 122%
[13]
  residual activity: 99.5%
[14]
  residual activity: 115%
[15]
  residual activity: 109%
[16]
  residual activity: 87.8%
[17]
  residual activity: 97.1%
[18]
  residual activity: 89.8%
[19]
  residual activity: 90.5%
[20]
  residual activity: 109%
[21]
  residual activity: 102%
[22]
  residual activity: 98.2%
[23]
  residual activity: 109%
[24]
  residual activity: 90%
[25]
  residual activity: 98%
[26]
  residual activity: 106%
[27]
  residual activity: 104%
[28]
  residual activity: 98.9%
[29]
  residual activity: 102%
[30]
  residual activity: 108%
[31]
  residual activity: 31.6%
[32]
  residual activity: 111%
[33]
  residual activity: 75.7%
[34]
  residual activity: 31.6%
[35]
  residual activity: 97.2%
[36]
  residual activity: 103%
[37]
  residual activity: 103%
[38]
  residual activity: 98.2%
[39]
  residual activity: 4.72%
[40]
  residual activity: 101%
[41]
  residual activity: 95.3%
[42]
  residual activity: 47.9%
